The values below come from ChEMBL document CHEMBL3886921, “Substituted pyrazoles as N-type calcium channel blockers” (2016).

In this assay the target is Voltage-gated calcium channel. The assay is described as follows: Functional Drug Screening System (FDSS): Calcium mobilization responses to KCl depolarization were evaluated by measuring the intensity of calcium-mediated fluorescent signal in the presence of BD Calcium Assay Dye (BD Biosciences, Franklin Lakes, N.J., U.S.A.), utilizing a Functional Drug Screening System (FDSS) by Hamamatsu Corporation (Bridgewater, N.J. U.S.A.).Twenty-four hr prior to assay, cells were seeded in clear-base poly-D-lysine-coated 384-well plates (BD Biosciences) at a density of 5,000 cells per well in culture medium and grown overnight in 5% CO2 at 37° C. On the day of assay, growth media were removed, and cells were loaded with BD calcium assay dye (BD Biosciences) for 35 min at 37° C. under 5% CO2 and then for 25 min at room temp. Utilizing the FDSS, cells were exposed to representative compounds of Formula (I) at varying concentrations, and intracellular calcium was measured for 5 min prior to the addition of 50 mM KCl for an additional 3 min of measurement. The class given is cell-based.

With `COc1ccccc1-n1nc(OC2CC(C)(C)C(=O)C(C)(C)C2)cc1-c1ccc(Cl)cc1`, the IC50 was 9.7 nM.
